Experimental data taken from publication PMC5577105, “A New Chimeric Natriuretic Peptide, CNAAC, for the Treatment of Left Ventricular Dysfunction after Myocardial Infarction” (Scientific Reports, 2017).

Assays:
[1] = tested on: myocardial infarction rats (left anterior descending coronary artery ligation); test: Cardiac hemodynamics after myocardial infarction; assay type: in vivo, rat; conditions: MI rats, NP 20 nmol/kg i.p. every 2 days for 4 weeks, anesthetized, LV catheter, mean ± SEM, n = 6; for +dp/dtmax / −dp/dtmax: in mmHg/s
Description: (§1) The Sham and MI animal model were established as described by Johns TN et al.[24], [25] […] The chest was closed immediately. Only a thoracotomy and closure were performed in the sham group. From the day of surgery, 0.85% NaCl or NPs (20 nmol/kg) were administered to these groups (i.p), one injection every two days and lasted for four weeks. Four weeks later, the cardiac function was measured by Doppler echocardiography under anesthesia with pentobarbital sodium (40 mg/kg i.p.). A 12 MHz linear probe (Vevo2100, VisualSonics, Inc., CAN) was used to perform the transthoracic echocardiography. Left ventricular (LV) ejection fraction (EF), LV fraction shortening (FS), LV end diastolic diameter (LVEDd), and left ventricular end systolic diameter (LVESd) were measured. All examinations were performed in a blinded state.
(§2) The day after echocardiography was performed; rats in each group were weighed and anesthetized via a peritoneal injection of pentobarbital sodium (40 mg/kg i.p.). Supplemental doses of sodium pentobarbital were given when needed to maintain uniform anesthesia. A micro catheter was inserted into the left ventricle through the right […], and left ventricular systolic pressure (LVSP), left ventricular end diastolic pressure (LVEDP), and ± dp/dtmax were recorded by the BL-420F BioData Acquisition & Analysis Systems (TME Technology Co, Ltd, Chengdu, China). At the end of the experiment, blood was sampled and the following parameters were recorded: heart weight (HW), left ventricle weight (LVW), and lung weight (LW).

[2] = tested on: myocardial infarction rats (left anterior descending coronary artery ligation); test: Tissue weights / cardiac hypertrophy after myocardial infarction; assay type: in vivo, rat; conditions: MI rats, NP 20 nmol/kg i.p. every 2 days for 4 weeks; mean ± SEM, n = 6
Description: as §1, §2

[3] = tested on: myocardial infarction rats (left anterior descending coronary artery ligation); test: Serum humoral factors by ELISA after myocardial infarction; assay type: in vivo; conditions: NP 20 nmol/kg i.p. every 2 days for 4 weeks, rat ELISA, n = 6
Description: as §1, with “0.85% NaCl; 20 nmol/kg·2d; n = 6). The Sham” for “The Sham”, “blinded state. Blood samples were centrifuged (4000 rpm, 15 min) and the serum was separated. Serum BNP, Ang II, ALD, ET-1, cGMP levels were detected with rat ELISA kits (Lianshuo, Shanghai, China).” for “blinded state.”

[4] = rat, in vivo, iv
Description: To determine the metabolic status of NPs in circulation, blood was collected from rats after a bolus injection of NPs. Rats were anesthetized with pentobarbital sodium (40 mg/kg i.p). One microcatheter was inserted into the left jugular vein to administer NPs, and another one was inserted into the right carotid artery to collect blood. After the surgery was completed, rats were allowed to stabilize for 15 min. Human ANP, CNP, VNP, or CNAAC at a concentration of 40 nmol/kg was administered in a bolus fashion (0.1 ml). Blood (0.5 ml) was sampled 5, 10, 20, and 30 min after the bolus injection. The samples from the plasma were analyzed using LT-20AT High-Performance-Liquid-Chromatography (HPLC) (Shimadzu, Tokyo, Japan). A linear gradient (Buffer A: acetonitrile with 0.05% trifluoroacetic acid; Buffer B: double distilled water with 0.05% trifluoroacetic acid)[36] was used for both analyses to separate peptides on an Inertsil OSD-3 (250 mm × 4.6 mm, 5 µm) chromatographic column (Shimadzu, Tokyo, Japan) and a Water Quatro-premier tandem quadrupole mass spectrometry and Alliance 2695 chromatographic system (Waters, Milford, Massachusetts, USA). Peak areas have been calculated with the Masslynx 4.1 software from Waters. […] Each experiment was conducted in duplicate, whereby duplicates are defined as two different vials.

[5] = set-up: method as in PMID 18205700; conditions: in circulation; cited from earlier work

Substance	Heart rate [1]	LVEDP [1]	LVSP [1]	+dp/dtmax [1]	−dp/dtmax [1]	BW (body weight) [2]	HW (heart weight) [2]	LVW (left ventricular weight) [2]	LW (lung weight) [2]	serum level of Ang II, change vs. MI group [3]	serum level of ET-1, change vs. MI group [3]	serum level of cGMP, change vs. MI group [3]	serum level of ALD, change vs. MI group [3]	NP remaining at 10 min [4]	NP remaining at 20 min [4]	NP remaining at 30 min [4]	circulating half-life [5]
C-type natriuretic peptide [CNP]	443 ± 21 bpm	6.5 ± 1.5 mm Hg	122.7 ± 4.8 mm Hg	4025 ± 289	3917 ± 250	347 ± 10 g	1072 ± 84 mg	492 ± 24 mg	2190 ± 149 mg	decreased	decreased	increased					
atrial natriuretic peptide [ANP]	437 ± 15 bpm	7.2 ± 1.8 mm Hg	112.5 ± 3.9 mm Hg	3651 ± 320	3424 ± 453	362 ± 8 g	1010 ± 39 mg	492 ± 24 mg	2094 ± 188 mg	decreased	decreased	increased	decreased	32.7%	Less than 10%	completely degraded	
brain natriuretic peptide [BNP]																	approximately 23 min
